Experimental data reported in patent publication US6930110B2, “Substituted alkylaminopyridazinone derivatives, process for the preparation thereof and pharmaceutical composition containing the same” (Egis Gyogyszergyar Rt., priority 2001, dated 2005).
Counter-ions that a name gives are not always drawn. Like-named read-outs stand apart in the source and are kept apart here.

How the values were obtained:
male Wistar rats [1] = experiment: Vogel lick-conflict (drinking conflict) test; format: in vivo, rat; settings: intraperitoneally, 30 min prior to test, number of tolerated shocks
Procedure: Experiments were performed in a PC operated system (LIIKOSYS, Experimentria, Hungary) consisted of 8 test chambers (20 cm×20 cm×20 cm Plexiglas boxes) each of which was equipped with a water fountain system mounted at appropriate height on the wall of the chamber and metal grid floor for delivering electric shocks. 160-180 g male Wistar rats N=8) were deprived of drinking water 48 h and fasted for 24 h prior to test. Test and reference compounds or vehicle were administered intraperitoneally, 30 min prior to test. All procedures were carried out in a quiet, air-conditioned room between 07:30 and 13:00 h at an ambient temperature of 23±2° C. At the beginning of the test the animals were placed in the test chamber where they had free access to drinking water for a 30 s grace period. After that, electric shocks (600 μA, 0.6 s) were applied through the drinking spout following every 20 licks during the 5 min test period (Vogel et al, 1971). Number of punished licks were recorded and stored by an IBM compatible computer. Means±SEM of numbers of tolerated shocks were calculated in each group, statistical analysis of data was performed by one way ANOVA followed by Duncan's test ([…]). Diazepam [7-chloro-1,3-dihydro-1-methyl-5-phenyl-2H-1,4-benzodiazepine-2-one] was used as the reference substance.

male Wistar rats [2] = settings: rat, in vivo
Procedure: (§1) The experiments were performed in conscious, freely moving, male Wistar rats using a radiotelemetry system (Data Sciences International, St. Paul, Minn., USA). Prior to treatments rats were implanted with transmitters (type: TL11M2-C50-PXT) that permitted continues monitoring of arterial blood pressure. Under sterile surgical conditions, catheter of the transmitter was introduced into the abdominal aorta for measurement of arterial blood pressure and the transmitter was sutured to the abdominal wall of animals anaesthetised with pentobarbital-Na (60 mg/kg, i.p.; Nembutal inj. Phylaxia-Sanofi, Budapest). After surgery the animals were treated with an antibiotic (1 ml/kg i.m. Tardomyocel comp. inj. ad us. vet., Bayer A G, Leverkusen, Germany). A 7 day postoperative recovery period was allowed. Radio signals emitted by the transmitters were detected by RLA1000 type receivers placed under each animal's cage. The data were collected, saved and evaluated using the Dataquest IV. software from Data Sciences. The computer was set to sample the parameters for 10 seconds in every second minute.
(§2) The test substances or vehicle (methyl cellulose 0.4% w/v) were administered orally by gavage in a volume of 1 ml/kg at about 10 a.m. The effects of test items were measured for 6 hours. The effect of each compound was compared with that caused by vehicle treatment using two-way analysis of variance for repeated measures with Scheffe's post hoc test.

Male Sprague-Dawley rats = experiment: Elevated plus-maze test in rats; format: in vivo, rat; settings: 60 min after treatment, minimal effective dose regarding the time spent in the open arms
From the text: Tests have been performed as described by Pellow and co-workers [J. Neurosci. Methods, 14, 149 (1985)]. A wooden cross, 15 cm wide with 100 cm long arms was used for the experiments. The sides and ends of two opposite arms of the cross were equipped with 40 cm high walls, however, the arms were open to the 15×15 cm central area (closed arms). The two other opposite arms were not encircled by walls (open arms).
Male Sprague-Dawley rats weighing 200-220 g were used for the experiments. The animals were placed in the central area of the equipment 60 min after treatment and the following four parameters have been observed for the 5 min test time: • time spent in the open arms, • time spent in the closed arms, • number of entries into the open arms, • number of entries into the closed arms.
The effect was expressed as percent increase in either the time (measured in sec) spent in the open arms or number of entries into the open arms. MEDs (minimal effective dose) were determined for each compound regarding the time spent in the open arms. Buspirone [8-{4-[4-(2-pyrimidinyl)-1-piperazinyl]butyl}-8-azaspiro[4,5]decane-7,9-dione] was used as the reference substance.

mouse = experiment: Inhibition of spontaneous motor activity (sedative effect); format: in vivo
Procedure: The effect on spontaneous motor activity was investigated according to Borsy and co-workers [Borsy, J. et al, Arch. Int. Pharmacodyn., 124, 180-190 (1960)] in a ten channel Dews instrument, with 1-1 animal in each channel. Animals were placed into the instrument 60 min after per os treatment with either vehicle or test compound, and interruptions of infrared beams were recorded for 30 min. […] Inhibitory doses (ID50)have been determined by regression analysis. Diazepam was used as the reference substance.

male Wistar rats [3] = experiment: Effects on blood pressure, radiotelemetry in conscious rats; settings: for Mean blood pressure after treatment with test compound (mmHg), Mean: mean arterial blood pressure for 6 hours after oral treatment; for Results of statistical evaluation: test compound compared to placebo, mean arterial blood pressure for 6 hours after treatment
Procedure: as §1, §2

[4] = per os, 60 min before test, interruptions of infrared beams recorded for 30 min

Compound	melting point [°C]	MED in mg/kg ip. (male Wistar rats [1]) [mg/kg]	MED in mg/kg po. (Male Sprague-Dawley rats) [mg/kg]	other results
CN(CCN1CCN(c2cccc3c2OCCO3)CC1)c1cnn(C)c(=O)c1Cl [Example 17, 4-chloro-5-({2-[4-(2,3-dihydro-benzo[1,4]dioxine-5-yl)-piperazine-1-yl]-ethyl}-methyl-amino)-2-methyl-2H-pyridazine-3-one]	114 to 116	–	–	–
CN(CCN1CCN(c2cccc3c2OCCO3)CC1)c1cn[nH]c(=O)c1Cl [Example 7, 4-chloro-5-{2-[4-(2,3-dihydrobenzo[1,4]dioxine-5-yl)-piperazine-1-yl]ethyl}methylamino-2H-pyridazine-3-one]	–	<10.0	–	Results of statistical evaluation (male Wistar rats [2]): N.S.; Mean blood pressure after treatment with test compound (mmHg), Mean (male Wistar rats [2]; po): 97.0 mmHg
O=c1[nH]nccc1NCCCNCCOc1cccc2c1OCCO2 (as salt: hydrochloride) [Example 9, 4-{3-[2-(2,3-dihydrobenzo[1,4]dioxine-5-yloxy)ethylamino]-propylamino}-2H-pyridazine-3-one]	203 to 204	–	–	–
O=c1[nH]ncc(Cl)c1NCCCCN1CCN(c2cccc3c2OCCO3)CC1 [Example 4, 5-chloro-4-{4-[4-(2,3-dihydrobenzo[1,4]dioxine-5-yl)-piperazine-1-yl]-butylamino}-2H-piridazine-3-one]	–	20.0	1.0	ID50 in mg/kg po. (mouse; in vivo, po): 30.0 mg/kg
O=c1[nH]nccc1NCCCNCCOc1cccc2c1OCCO2 [Example 9, 4-{3-[2-(2,3-dihydrobenzo[1,4]dioxine-5-yloxy)ethylamino]-propylamino}-2H-pyridazine-3-one]	–	–	0.3	ID50 in mg/kg po. (mouse; [4]): >30.0 mg/kg
O=C1CC2(CCCC2)CC(=O)N1CCCCN1CCN(c2ncccn2)CC1 [Buspirone, 8-{4-[4-(2-pyrimidinyl)-1-piperazinyl]butyl}-8-azaspiro[4,5]decane-7,9-dione, reference compound]	–	–	3.0	–
CN(CCN1CCN(c2cccc3c2OCCO3)CC1)c1cnn(C)c(=O)c1 (as salt: hydrochloride) [Example 16, 5-(2-(4-(2,3-dihydro-benzo[1,4]dioxine-5-yl)-piperazine-1-yl)-ethyl-methyl-amino)-2-methyl-2H-pyridazine-3-one-hydrochloride]	249 to 251	–	–	–
Cn1ncc(NCCN2CCN(c3cccc4c3OCCO4)CC2)c(Cl)c1=O.O [Example 6, 4-chloro-5-{2-[4-(2,3-dihydro-1,4-benzodioxine-5-yl)-piperazine-1-yl]-ethylamino}-2-methyl-2H-piridazine-3-one monohydrate]	–	<5.0	–	Mean blood pressure after treatment with test compound (mmHg), Mean (male Wistar rats [3]): 106.3 mmHg; Results of statistical evaluation (male Wistar rats [3]): N.S.
Cn1ncc(NCCN2CCN(c3cccc4c3OCCO4)CC2)cc1=O [Example 14, 5-{2-[4-(2,3-dihydro1,4-benzodioxine-5-yl)-piperazine-1-yl]-ethylamino}-2-methyl-2H-pyridazine-3-one]	188 to 190	–	–	–
O=c1[nH]ncc(Cl)c1NCCCN(CCOc1cccc2c1OCCO2)Cc1ccccc1 (as salt: hydrochloride) [Example 3, 4-{3-[benzyl-[2-(2,3-dihydrobenzo[1,4]dioxine-5-yloxy)ethyl]-amino]propylamino}-5-chloro-2H-pyridazine-3-one hydrochloride]	207 to 209	–	–	–
O=c1cc(NCCN2CCN(c3cccc4c3OCCO4)CC2)cn[nH]1 [Example 10, 5-{2-[4-(2,3-dihydro-1,4-benzodioxine-5-yl)-piperazine-1-yl]-ethylamino}-2H-pyridazine-3-one]	244 to 246	5.0	0.01	ID50 in mg/kg po. (mouse; [4]): 53.3 mg/kg
O=c1[nH]ncc(NCCN2CCN(c3cccc4c3OCCO4)CC2)c1Cl [Example 5, 4-chloro-5-{2-[4-(2,3-dihydrobenzo[1,4]dioxine-5-yl)-piperazin-1-yl]-ethylamino}-2H-pyridazine-3-one]	217 to 219	–	0.003	ID50 in mg/kg po. (mouse; [4]): 11.0 mg/kg
CCCN(CCCNc1c(Cl)cn[nH]c1=O)CCOc1cccc2c1OCCO2 [Example 2, 5-chloro-4-(3-{[2-(2,3-dihydrobenzo[1,4]dioxine-5-yloxy)-ethyl]propyl-amino}propylamino)-2H-pyridazine-3-one]	87 to 89	20.0	10.0	–
CN1C(=O)CN=C(c2ccccc2)c2cc(Cl)ccc21 [Diazepam, 7-chloro-1,3-dihydro-1-methyl-5-phenyl-2H-1,4-benzodiazepine-2-one, reference compound]	–	5.0	–	ID50 in mg/kg po. (mouse; [4]): 7.0 mg/kg
O=c1[nH]ncc(Cl)c1NCCCN(CCOc1cccc2c1OCCO2)Cc1ccccc1 [Example 3, 4-{3-[benzyl-[2-(2,3-dihydrobenzo[1,4]dioxine-5-yloxy)ethyl]-amino]propylamino}-5-chloro-2H-pyridazine-3-one hydrochloride]	–	–	10.0	–
CN(CCN1CCN(c2cccc3c2OCCO3)CC1)c1cnn(C)c(=O)c1 [Example 16, 5-(2-(4-(2,3-dihydro-benzo[1,4]dioxine-5-yl)-piperazine-1-yl)-ethyl-methyl-amino)-2-methyl-2H-pyridazine-3-one-hydrochloride]	–	–	–	Mean blood pressure after treatment with test compound (mmHg), Mean (male Wistar rats [3]): 105.2 mmHg; Results of statistical evaluation (male Wistar rats [3]): N.S.
O=c1cc(NCCCN2CCN(c3cccc4c3OCCO4)CC2)cn[nH]1 [Example 12, 5-{3-[4-(2,3-dihydro-1,4-benzodioxine-5-yl)piperazine-1-yl]-propylamino}-2H-pyridazine-3-one]	158 to 160	–	–	Mean blood pressure after treatment with test compound (mmHg), Mean (male Wistar rats [3]): 89.9 mmHg; Results of statistical evaluation (male Wistar rats [3]): N.S.
O=c1cc(NCCNCCOc2cccc3c2OCCO3)cn[nH]1 [Example 13, 5-{2-[2-(2,3-dihydrobenzo[1,4]dioxine-5-yloxy)ethylamino)-ethylamino)-2H-pyridazine-3-one]	81 to 83	–	–	–
CC(C)(C)n1ncc(Cl)c(NCCN2CCN(c3cccc4c3OCCO4)CC2)c1=O [Example 8, 2-tert.-butyl-5-chloro-4-{2-[4-(2,3-dihydrobenzo-[1,4]dioxine-5-yl)piperazine-1-yl]ethylamino}-2H-pyridazine-3-one]	177 to 178	–	–	Mean blood pressure after treatment with test compound (mmHg), Mean (male Wistar rats [3]): 95.4 mmHg; Results of statistical evaluation (male Wistar rats [3]): N.S.
O=c1cc(NCCN2CCN(c3cc(Cl)cc4c3OCCO4)CC2)cn[nH]1 [Example 11, 5-{2-[4-(7-chloro-2,3-dihydrobenzo[1,4]dioxine-5-yl)-piperazine-1-yl]ethylamino}-2H-pyridazine-3-one]	115 to 117	20.0	–	Mean blood pressure after treatment with test compound (mmHg), Mean (male Wistar rats [3]): 101.5 mmHg; Results of statistical evaluation (male Wistar rats [3]): N.S.
